# From patent publication US10160750B2, “Diamide macrocycles as factor XIa inhibitors” (BRISTOL-MYERS SQUIBB COMPANY, priority 2015, dated 2018)
# Columns and labels:
# [1] = target: T1, purified human plasma kallikrein (Homo sapiens, UniProt P03952); test: Plasma kallikrein enzyme inhibition assay (chromogenic substrate S-2302); format: biochemical; conditions: substrate S-2302, pH 7.5
# T1 construct: Plasma prekallikrein is a zymogen of a trypsin-like serine protease; purchased Enzyme Research Laboratories
# Procedure: (§1) The effectiveness of compounds of the present invention as inhibitors of the coagulation Factors XIa, VIIa, IXa, Xa, XIIa, plasma kallikrein or thrombin, can be determined using a relevant purified serine protease, respectively, and an appropriate synthetic substrate. The rate of hydrolysis of the chromogenic or fluorogenic substrate by the relevant serine protease was measured both in the absence and presence of compounds of the present invention. […] A decrease in the rate of absorbance or fluorescence change in the presence of inhibitor is indicative of enzyme inhibition. Such methods are known to one skilled in the art. The results of this assay are expressed as the inhibitory constant, Ki.
# Plasma kallikrein determinations were made in 0.1 M sodium phosphate buffer at a pH of 7.5 containing 0.1-0.2 M sodium chloride and 0.5% PEG 8000. Determinations were made using purified human plasma kallikrein (Enzyme Research Laboratories) at a final assay concentration of 200 pM and the synthetic substrate S-2302 (H-(D)-Pro-Phe-Arg-pNA; Chromogenix) at a concentration of 0.00008-0.0004 M.
# (§2) The Michaelis constant, Km, for substrate hydrolysis by each protease, was determined at 25° C. or 37° C. in the absence of inhibitor. Values of Ki were determined by allowing the protease to react with the substrate in the presence of the inhibitor. Reactions were allowed to go for periods of 20-180 minutes (depending on the protease) and the velocities (rate of absorbance or fluorescence change versus time) were measured. The following relationships were used to calculate Ki values: (Vmax*S)/(Km+S); (vo−vs)/vs=I/(Ki*(1+S/Km)) for a competitive inhibitor with one binding site; or vs/vo=A+((B−A)/(1+(IC50/(I))^n)); and Ki=IC50/(1+S/Km) for a competitive inhibitor where: […]
# [2] = target: T2, purified human Factor XIa (Homo sapiens, UniProt P03951); test: Factor XIa enzyme inhibition assay (chromogenic substrate S-2366); format: biochemical; conditions: substrate S-2366, pH 7.4
# T2 construct: purchased Haematologic Technologies
# Procedure: as §1
# Factor XIa determinations were made in 50 mM HEPES buffer at pH 7.4 containing 145 mM NaCl, 5 mM KCl, and 0.1% PEG 8000 (polyethylene glycol; JT Baker or Fisher Scientific). Determinations were made using purified human Factor XIa at a final concentration of 25-200 pM (Haematologic Technologies) and the synthetic substrate S-2366 (pyroGlu-Pro-Arg-pNA; Chromogenix or AnaSpec) at a concentration of 0.0002-0.001 M.
# as §2
# T2 sequence (P03951 388-625 limits assumed): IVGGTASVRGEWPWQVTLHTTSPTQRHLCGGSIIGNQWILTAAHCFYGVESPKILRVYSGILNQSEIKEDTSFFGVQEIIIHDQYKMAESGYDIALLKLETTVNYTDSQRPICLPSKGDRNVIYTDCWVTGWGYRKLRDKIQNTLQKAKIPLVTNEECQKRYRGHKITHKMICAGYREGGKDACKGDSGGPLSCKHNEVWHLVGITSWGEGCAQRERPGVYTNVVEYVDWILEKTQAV
# T2 sequence (P03951 19-387 partner limits assumed): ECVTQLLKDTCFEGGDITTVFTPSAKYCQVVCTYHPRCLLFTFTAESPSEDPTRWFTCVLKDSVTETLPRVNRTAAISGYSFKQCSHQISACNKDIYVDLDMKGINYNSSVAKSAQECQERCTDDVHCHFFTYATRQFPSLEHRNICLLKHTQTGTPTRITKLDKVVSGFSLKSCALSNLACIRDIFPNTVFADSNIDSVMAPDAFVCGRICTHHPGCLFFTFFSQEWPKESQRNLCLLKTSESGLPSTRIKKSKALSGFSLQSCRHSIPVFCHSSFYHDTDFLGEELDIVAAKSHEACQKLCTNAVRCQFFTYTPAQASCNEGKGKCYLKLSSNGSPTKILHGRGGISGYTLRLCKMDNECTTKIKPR
# T1 sequence (P03952 391-638 limits assumed): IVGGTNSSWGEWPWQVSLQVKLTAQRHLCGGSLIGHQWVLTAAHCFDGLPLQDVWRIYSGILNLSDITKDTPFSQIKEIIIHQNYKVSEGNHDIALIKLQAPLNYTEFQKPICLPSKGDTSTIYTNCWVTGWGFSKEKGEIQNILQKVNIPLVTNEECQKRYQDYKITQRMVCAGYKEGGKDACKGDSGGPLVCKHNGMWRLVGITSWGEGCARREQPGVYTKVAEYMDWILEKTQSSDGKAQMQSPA
# T1 sequence (P03952 20-390 partner limits assumed): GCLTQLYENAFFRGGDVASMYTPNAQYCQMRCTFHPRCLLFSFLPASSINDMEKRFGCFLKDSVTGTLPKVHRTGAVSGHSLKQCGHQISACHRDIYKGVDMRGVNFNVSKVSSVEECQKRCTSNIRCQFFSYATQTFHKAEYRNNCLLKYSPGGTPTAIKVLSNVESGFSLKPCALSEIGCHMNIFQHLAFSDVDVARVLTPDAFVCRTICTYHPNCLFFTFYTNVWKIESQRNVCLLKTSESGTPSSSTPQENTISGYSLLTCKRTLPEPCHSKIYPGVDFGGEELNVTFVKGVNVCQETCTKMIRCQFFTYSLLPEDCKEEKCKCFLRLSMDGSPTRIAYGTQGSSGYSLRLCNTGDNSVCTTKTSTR
SMILES,Ki [1] [nM],Ki [2] [nM]
"C[C@@H]1CCC[C@H](n2cnc(-c3cc(Cl)ccc3-n3cc(C(F)(F)F)nn3)cc2=O)C(=O)NCc2ccccc2NC1=O [Example 11, (3R,7S)-7-(4-(5-Chloro-2-(4-(trifluoromethyl)-1H-1,2,3-triazol-1-yl)phenyl)-6-oxopyrimidin-1(6H)-yl)-3-methyl-4,5,6,7,9,10-hexahydrobenzo[b][1,5]-diazacyclododecine-2,8(1H, 3H)-dione]",3380,18.7
"C[C@@H]1CCC[C@H](n2cnc(-c3cc(Cl)ccc3-n3cc(C(F)(F)F)nn3)cc2=O)C(=O)NCc2cc(F)ccc2NC1=O [Example 19, (3R,7S)-7-(4-(5-Chloro-2-(4-(trifluoromethyl)-1H-1,2,3-triazol-1-yl)phenyl)-6-oxopyrimidin-1(6H)-yl)-12-fluoro-3-methyl-4,5,6,7,9,10-hexahydrobenzo[b][1,5]diazacyclododecine-2,8(1H,3H)-dione]",≥ 13000,18.7
"C[C@@H]1CCC[C@H](n2cnc(-c3cc(Cl)ccc3-n3cc(C(F)F)nn3)cc2=O)C(=O)NCc2ccccc2NC1=O [Example 15, (3R,7S)-7-(4-(5-Chloro-2-(4-(difluoromethyl)-1H-1,2,3-triazol-1-yl)phenyl)-6-oxopyrimidin-1(6H)-yl)-3-methyl-4,5,6,7,9,10-hexahydrobenzo[b][1,5]diazacyclo-dodecine-2,8(1H, 3H)-dione]",3360,34.8
"Cc1c(C(=O)N[C@H]2CCCCCC(=O)Nc3cc(C(=O)O)ccc3NC2=O)cnn1-c1cccc(Cl)c1F [Example 26, (S)-3-(1-(3-chloro-2-fluorophenyl)-5-methyl-1H-pyrazole-4-carboxamido)-2,9-dioxo-1,2,3,4,5,6,7,8,9,10-decahydrobenzo[b][1,4]diazacyclododecine-12-carboxylic acid]",765,1740
"C[C@@H]1CCC[C@H](n2cnc(-c3cc(Cl)ccc3-n3cc(Cl)nn3)cc2=O)C(=O)NCc2ccccc2NC1=O [Example 13, (3R,7S)-7-(4-(5-Chloro-2-(4-chloro-1H-1,2,3-triazol-1-yl)phenyl)-6-oxopyrimidin-1(6H)-yl)-3-methyl-4,5,6,7,9,10-hexahydrobenzo[b][1,5]diazacyclo-dodecine-2,8(1H,3H)-dione]",1230,8.5
"C[C@@H]1CCC[C@H](N2CCC(c3c(F)ccc(Cl)c3F)=CC2=O)C(=O)NCc2ccccc2NC1=O [Example 17, (3R,7S)-7-(4-(3-Chloro-2,6-difluorophenyl)-2-oxo-56-dihydropyridin-1(2H)-yl)-3-methy 1-4,5,6,7,9,10-hexahydrobenzo[b][1,5]diazacyclododecine-2,8(1H,3H)-dione]",558,112
C[C@@H]1CCC[C@H](N2CCC(c3cc(Cl)ccc3-n3cc(C(F)(F)F)nn3)=CC2=O)C(=O)NCc2ccccc2NC1=O [Example 18],103,3.1
"Cc1c(C(=O)N[C@H]2CCC[C@@H](C)C(=O)Nc3ccccc3CNC2=O)ncn1-c1cccc(Cl)c1F [Example 24, 1-(3-chloro-2-fluorophenyl)-5-methyl-N-((3R,7S)-3-methyl-2,8-dioxo-1,2,3,4,5,6,7,8,9,10-decahydrobenzo[b][1,5]diazacyclododecin-7-yl)-1H-imidazole-4-carboxamide]",4360,7410
"O=C1CCCCC[C@H](n2cnc(-c3cc(Cl)ccc3-n3cc(C(F)(F)F)nn3)cc2=O)C(=O)Nc2ccc(C(=O)O)cc2N1 [Example 28, (S)-3-(4-(5-chloro-2-(4-(trifluoromethyl)-1H-1,2,3-triazol-1-yl)phenyl)-6-oxopyrimidin-1(6H)-yl)-2,9-dioxo-1,2,3,4,5,6,7,8,9,10-decahydrobenzo[b][1,4]diazacyclododecine-12-carboxylic acid]",11600,173

# Results, then the compound that gave them:
Ki [1] [nM],Ki [2] [nM],SMILES
≥ 13000,8730,"C[C@@H]1CCC[C@H](NC(=O)c2cn(-c3cccc(Cl)c3F)nn2)C(=O)NCc2ccccc2NC1=O [Example 23, 1-(3-chloro-2-fluorophenyl)-N-((3R,7S)-3-methyl-2,8-dioxo-1,2,3,4,5,6,7,8,9,10-decahydrobenzo[b][1,5]diazacyclododecin-7-yl)-1H-1,2,3-triazole-4-carboxamide]"
> 13000,561,"COC(=O)c1ccc2c(c1)NC(=O)CCCCC[C@H](n1cnc(-c3cc(Cl)ccc3-n3cc(C(F)(F)F)nn3)cc1=O)C(=O)N2 [Example 27, methyl (S)-3-(4-(5-chloro-2-(4-(trifluoromethyl)-1H-1,2,3-triazol-1-yl)phenyl)-6-oxopyrimidin-1(6H)-yl)-2,9-dioxo-1,2,3,4,5,6,7,8,9,10-decahydrobenzo[b][1,4]diazacyclododecine-12-carboxylate]"
268,7,"C[C@@H]1CCC[C@H](N2CCC(c3cc(Cl)ccc3-n3cc(C(F)(F)F)nn3)=CC2=O)C(=O)NCc2cc(F)ccc2NC1=O [Example 20, (3R,7S)-7-(4-(5-Chloro-2-(4-(trifluoromethyl)-1H-1,2,3-triazol-1-yl)phenyl)-2-oxo-5,6-dihydropyridin-1(2H)-yl)-12-fluoro-3-methyl-4,5,6,7,9,10-hexahydrobenzo[b][1,5]diazacyclododecine-2,8(1H,3H)-dione]"
> 13000,3680,"CC1NC(=O)[C@@H](N2CCC(c3cc(Cl)ccc3-n3cc(C(F)(F)F)nn3)=CC2=O)CCC[C@@H](C)C(=O)Nc2ccccc21 (single isomer, unassigned; diastereomer b) [Example 22]"
> 13000,6000,"O=C1CCCCC[C@H](NC(=O)c2cn(-c3cccc(Cl)c3F)nn2)C(=O)Nc2ccccc2N1 [Example 25, (S)-1-(3-chloro-2-fluorophenyl)-N-(2,9-dioxo-1,2,3,4,5,6,7,8,9,10-decahydrobenzo[b][1,4]diazacyclododecin-3-yl)-1H-1,2,3-triazole-4-carboxamide]"
733,4.3,"C[C@@H]1CCC[C@H](n2cnc(-c3c(-n4cc(C(F)(F)F)nn4)ccc(Cl)c3F)cc2=O)C(=O)NCc2ccccc2NC1=O [Example 14, (3R,7S)-7-(4-(3-Chloro-2-fluoro-6-(4-(trifluoromethyl)-1H-1,2,3-triazol-1-yl)phenyl)-6-oxopyrimidin-1(6H)-yl)-3-methyl-4,5,6,7,9,10-hexahydrobenzo[b][1,5]-diazacyclododecine-2,8(1H,3H)-dione]"
60.7,4,"C[C@@H]1CCC[C@H](N2CCC(c3cc(Cl)ccc3-n3cc(Cl)nn3)=CC2=O)C(=O)NCc2ccccc2NC1=O [Example 16, (3R,7S)-7-(4-(5-Chloro-2-(4-chloro-H-1,2,3-triazol-1-yl)phenyl)-2-oxo-5,6-dihydropyridin-1(2H)-yl)-3-methyl-4,5,6,7,9,10-hexahydrobenzo[b][1,5]diazacyclododecine-2,8(1H, 3H)-dione]"
179,2,"C[C@@H]1CCC[C@H](n2cnc(-c3c(-n4cc(Cl)nn4)ccc(Cl)c3F)cc2=O)C(=O)NCc2ccccc2NC1=O [Example 12, (3R,7S)-7-(4-(3-Chloro-6-(4-chloro-1H-1,2,3-triazol-1-yl)-2-fluorophenyl)-6-oxopyrimidin-1(6H)-yl)-3-methyl-4,5,6,7,9,10-hexahydrobenzo[b][1,5]diazacyclo-dodecine-2,8(1H,3H)-dione]"
259,10.1,C[C@@H]1CCC[C@H](n2ccc(-c3cc(Cl)ccc3-n3cc(Cl)nn3)cc2=O)C(=O)NCc2ccccc2NC1=O [Example 18]
2830,93,"CC1NC(=O)[C@@H](N2CCC(c3cc(Cl)ccc3-n3cc(C(F)(F)F)nn3)=CC2=O)CCC[C@@H](C)C(=O)Nc2ccccc21 (single isomer, unassigned; diastereomer a) [Example 21]"
